In ChEMBL document CHEMBL1152321, “Recent advances in the chemistry and biology of new generation taxoids” (J Nat Prod, 2009):

Assays:
[1] = Cytotoxicity against multidrug-resistant human NCI/ADR cells after 72 hrs; format: functional, cell-based; conditions: NCI/ADR-RES
[2] = Cytotoxicity against P-glycoprotein deficient wild type human LCC-6 cells after 72 hrs; format: functional, cell-based; conditions: LCC-6, 72 h
[3] = system: MCF7; experiment: Cytotoxicity against P-glycoprotein deficient wild type human MCF7 cells after 72 hrs; format: functional, cell-based; conditions: MCF7, 72 h
[4] = system: HT-29; experiment: Cytotoxicity against human HT-29 cells after 72 hrs; format: functional, cell-based; conditions: HT-29, 72 h
[5] = system: A2780; experiment: Cytotoxicity against human wild type A2780 cells after 72 hrs; format: functional, cell-based; conditions: A2780, 72 h
[6] = Cytotoxicity against human LCC-6 cells expressing P-glycoprotein after 72 hrs; format: functional, cell-based; conditions: LCC-6, 72 h
[7] = system: PANC-1; experiment: Cytotoxicity against human PANC1 cells expressing mdr1, mrp1, mrp2, lrp genes after 72 hrs; format: functional, cell-based; conditions: PANC-1, 72 h
[8] = system: MCF7; experiment: Cytotoxicity against human MCF7 cells expressing P-glycoprotein after 72 hrs; format: functional, cell-based; conditions: MCF7, 72 h
[9] = system: MCF7; experiment: Resistance factor, ratio of IC50 for human MCF7 cells expressing P-glycoprotein to IC50 for P-glycoprotein deficient wild type human MCF7 cells; format: functional
[10] = system: MCF7; experiment: Resistance factor, ratio of IC50 for P-glycoprotein deficient wild type human MCF7 cells to IC50 for multidrug-resistant human NCI/ADR cells; format: functional
[11] = Resistance factor, ratio of IC50 for human LCC-6 cells expressing P-glycoprotein to IC50 for P-glycoprotein deficient wild type human LCC-6 cells; format: functional; parameters: reference not given here
[12] = Cytotoxicity against human paclitaxel and cyclosporine-resistant A2780TC3 cells overexpressing class 3 beta-tubulin after 72 hrs; format: functional, cell-based; conditions: A2780TC3, 72 h
[13] = system: A2780; experiment: Cytotoxicity against human topotecan-resistant A2780 cells after 72 hrs; format: functional, cell-based; conditions: A2780, 72 h
[14] = Cytotoxicity against human A2780/ADR cells after 72 hrs; format: functional, cell-based
[15] = Cytotoxicity against human paclitaxel and cyclosporine-resistant A2780TC1 cells overexpressing class 3 beta-tubulin after 72 hrs; format: functional, cell-based; conditions: A2780TC1, 72 h
[16] = system: A2780; experiment: Cytotoxicity against human cisplatin-resistant A2780 cells after 72 hrs; format: functional, cell-based; conditions: A2780, 72 h

Row | Structure (SMILES) | IC50 [2] [nM] | IC50 [3] [nM] | IC50 [4] [nM] | Ratio [10] | Ratio [11] | other results
1 | CC(=O)O[C@H]1C(=O)[C@@]2(C)[C@H]([C@H](OC(=O)c3ccccc3)[C@]3(O)[C@H]4OC/C=C/Cc5ccccc5C(=O)N[C@@H](c5ccccc5)[C@@H](O)C(=O)O[C@@H]4C(C)=C1C3(C)C)[C@]1(OC(C)=O)CO[C@@H]1C[C@@H]2O | 12.2 | 12.3 | 29.2 | – | – | IC50 [1]: 592 nM; IC50 [5]: 114 nM; IC50 [6]: 300 nM
2 | CC(=O)O[C@H]1C(=O)[C@@]2(C)[C@H]([C@H](OC(=O)c3ccccc3)[C@]3(O)[C@H]4OC/C=C\OCc5ccccc5C(=O)N[C@@H](c5ccccc5)[C@@H](O)C(=O)O[C@@H]4C(C)=C1C3(C)C)[C@]1(OC(C)=O)CO[C@@H]1C[C@@H]2O | 348 | 196 | 62 | – | – | IC50 [1]: 1140 nM; IC50 [5]: 198 nM; IC50 [6]: 1920 nM
3 | CC(=O)O[C@H]1C(=O)[C@@]2(C)[C@H]([C@H](OC(=O)c3ccccc3)[C@]3(O)C[C@H](OC(=O)[C@H](O)[C@H](C=C(F)F)NC(=O)OC(C)(C)C)C(C)=C1C3(C)C)[C@]1(OC(C)=O)CO[C@@H]1C[C@@H]2O | – | 0.099 | 0.41 | – | – | IC50 [7]: 1.19 nM; IC50 [8]: 0.95 nM; Ratio [9]: 9.6
4 | CCC(=O)O[C@H]1C(=O)[C@@]2(C)[C@H]([C@H](OC(=O)c3ccccc3)[C@]3(O)C[C@H](OC(=O)[C@H](O)[C@H](C=C(F)F)NC(=O)OC(C)(C)C)C(C)=C1C3(C)C)[C@]1(OC(C)=O)CO[C@@H]1C[C@@H]2O | – | 0.12 | 0.34 | – | – | IC50 [7]: 0.65 nM; IC50 [8]: 1.2 nM; Ratio [9]: 10
5 | CC(=O)O[C@@]12CO[C@@H]1C[C@H](O)[C@@]1(C)C(=O)[C@H](OC(=O)N(C)C)C3=C(C)[C@@H](OC(=O)[C@H](O)[C@H](C=C(F)F)NC(=O)OC(C)(C)C)C[C@@](O)([C@@H](OC(=O)c4ccccc4)[C@H]21)C3(C)C | – | 0.13 | 0.46 | – | – | IC50 [7]: 1.58 nM; IC50 [8]: 4.3 nM; Ratio [9]: 33
6 | CC(=O)O[C@H]1C(=O)[C@@]2(C)[C@H]([C@H](OC(=O)c3ccccc3)[C@]3(O)[C@H]4OC/C=C/OCc5ccccc5C(=O)N[C@@H](c5ccccc5)[C@@H](O)C(=O)O[C@@H]4C(C)=C1C3(C)C)[C@]1(OC(C)=O)CO[C@@H]1C[C@@H]2O | 2070 | 1650 | 523 | – | – | IC50 [1]: 10000 nM; IC50 [5]: 1480 nM; IC50 [6]: 2280 nM
7 | CC(=O)O[C@@]12CO[C@@H]1C[C@H](O)[C@@]1(C)C(=O)[C@H](OC(=O)C3CC3)C3=C(C)[C@@H](OC(=O)[C@H](O)[C@H](C=C(F)F)NC(=O)OC(C)(C)C)C[C@@](O)([C@@H](OC(=O)c4ccccc4)[C@H]21)C3(C)C | – | 0.12 | 0.85 | – | – | IC50 [7]: 5.85 nM; IC50 [8]: 6 nM; Ratio [9]: 50
8 | CCC(=O)O[C@H]1C(=O)[C@@]2(C)[C@H]([C@H](OC(=O)c3ccccc3)[C@]3(O)C[C@H](OC(=O)[C@H](O)[C@H](C=C(C)C)NC(=O)C4CCC4)C(C)=C1C3(C)C)[C@]1(OC(C)=O)CO[C@@H]1C[C@@H]2O | 1.3 | – | – | 34 | 26 | –
9 | CCC(=O)O[C@H]1C(=O)[C@@]2(C)[C@H]([C@H](OC(=O)c3ccccc3)[C@]3(O)C[C@H](OC(=O)[C@H](O)[C@H](C=C(C)C)NC(=O)OC4CCCCC4)C(C)=C1C3(C)C)[C@]1(OC(C)=O)CO[C@@H]1C[C@@H]2O | 1.2 | – | – | 6.4 | 13 | –
10 | CCC(=O)O[C@H]1C(=O)[C@@]2(C)[C@H]([C@H](OC(=O)c3ccccc3)[C@]3(O)C[C@H](OC(=O)[C@H](O)[C@H](C=C(C)C)NC(=O)C4=CCCCC4)C(C)=C1C3(C)C)[C@]1(OC(C)=O)CO[C@@H]1C[C@@H]2O | 1.2 | – | – | 13 | 9.2 | –
11 | COc1ccc(CC(=O)O[C@H]2C(=O)[C@@]3(C)[C@H]([C@H](OC(=O)c4cccc(OC)c4)[C@]4(O)C[C@H](OC(=O)[C@H](O)[C@H](C=C(C)C)NC(=O)OC(C)(C)C)C(C)=C2C4(C)C)[C@]2(OC(C)=O)CO[C@@H]2C[C@@H]3O)cc1 | 0.4 | – | – | 3 | 1 | –
12 | CCC(=O)O[C@H]1C(=O)[C@@]2(C)[C@H]([C@H](OC(=O)c3ccccc3)[C@]3(O)C[C@H](OC(=O)[C@H](O)[C@H](CC(C)C)NC(=O)C4CCCCC4)C(C)=C1C3(C)C)[C@]1(OC(C)=O)CO[C@@H]1C[C@@H]2O | 5.8 | – | – | 13 | 5.5 | –
13 | CC(=O)O[C@@]1([C@@H]2/C(C)=C(/O)C(=O)C3=C(C)[C@@H](OC(=O)[C@H](O)[C@H](C=C(C)C)NC(=O)OC(C)(C)C)C[C@@](O)([C@H]2OC(=O)c2cccc(F)c2)C3(C)C)CO[C@@H]1CCO | – | – | – | – | – | IC50 [5]: 6.1 nM; IC50 [12]: 745 nM; IC50 [13]: 6.9 nM; IC50 [14]: 2220 nM; IC50 [15]: 4450 nM; IC50 [16]: 4.9 nM
14 | CCC(=O)O[C@H]1C(=O)[C@@]2(C)[C@H]([C@H](OC(=O)c3ccccc3)[C@]3(O)C[C@H](OC(=O)[C@H](O)[C@H](CC(C)C)NC(=O)OC4CCCCC4)C(C)=C1C3(C)C)[C@]1(OC(C)=O)CO[C@@H]1C[C@@H]2O | 4.8 | – | – | 10 | 3.8 | –
15 | CCC(=O)O[C@H]1C(=O)[C@@]2(C)[C@H]([C@H](OC(=O)c3ccccc3)[C@]3(O)C[C@H](OC(=O)[C@H](O)[C@H](CC(C)C)NC(=O)C4CCCC4)C(C)=C1C3(C)C)[C@]1(OC(C)=O)CO[C@@H]1C[C@@H]2O | 6.3 | – | – | 12 | 10 | –
16 | CCC(=O)O[C@H]1C(=O)[C@@]2(C)[C@H]([C@H](OC(=O)c3cccc(OC)c3)[C@]3(O)C[C@H](OC(=O)[C@H](O)[C@H](C=C(C)C)NC(=O)C4CC4)C(C)=C1C3(C)C)[C@]1(OC(C)=O)CO[C@@H]1C[C@@H]2O | 1.1 | – | – | 15.6 | 16 | –
17 | CCC(=O)O[C@H]1C(=O)[C@@]2(C)[C@H]([C@H](OC(=O)c3cccc(OC)c3)[C@]3(O)C[C@H](OC(=O)[C@H](O)[C@H](C=C(C)C)NC(=O)OC4CCCCC4)C(C)=C1C3(C)C)[C@]1(OC(C)=O)CO[C@@H]1C[C@@H]2O | 1.23 | – | – | 9.7 | 12 | –
18 | CC(=O)O[C@H]1C(=O)[C@@]2(C)[C@H]([C@H](OC(=O)c3ccccc3)[C@]3(O)[C@H]4OC/C=C/Cc5ccccc5C(=O)N[C@@H](C=C(C)C)[C@@H](O)C(=O)O[C@@H]4C(C)=C1C3(C)C)[C@]1(OC(C)=O)CO[C@@H]1C[C@@H]2O | 130 | 398 | – | – | – | IC50 [1]: 1000 nM; IC50 [6]: 618 nM
19 | COC(=O)O[C@H]1C(=O)[C@@]2(C)[C@H]([C@H](OC(=O)c3cccc(OC)c3)[C@]3(O)C[C@H](OC(=O)[C@H](O)[C@H](C=C(C)C)NC(=O)OC(C)(C)C)C(C)=C1C3(C)C)[C@]1(OC(C)=O)CO[C@@H]1C[C@@H]2O | 0.6 | – | – | 3.5 | 2.7 | –
